Results taken from paper PMC6508953 (Cell chemical biology, 2017).

Legend:
[1] = test system: BMK cells
[2] = test system: HCT-116 cells; details: 5 or 10 μM pretreatment; WT, Bax-/- and Bak-/- HCT-116 cells; actinomycin D
[3] = molecular target: T1, Bax (Homo sapiens, UniProt Q07812); test: tBid/Bax-mediated liposome permeabilization; details: for IC50: read-out: IC50, concentration of compound required to inhibit 50% of the maximal dye release, liposomes, tBid and Bax, ANTS/DPX release
[4] = test system: HCT-116 cells; test: Immunofluorescence for activated Bax; format: cell-based, human; details: 10 μM for 3 hr before ActD for 24 hr, HCT-116 WT
[5] = molecular target: T1, Bax; test: Bax binding to mitochondria by differential centrifugation; format: biochemical; details: preincubation of Bax or mitochondria with compound
[6] = test system: Bax; test: Bax:Bax FRET oligomerization assay; format: biochemical, human; details: 10 μM, liposomes and tBid
[7] = molecular target: T1, Bax; test: DSS chemical crosslinking of Bax oligomers in liposomes, immunoblot; format: biochemical; details: for large oligomers of Bax (DSS crosslinking): high concentrations, compared with positive control Bcl-XL
[8] = test system: primary embryonic mouse brain cortical neurons; test: Glutamate excitotoxicity, lactate dehydrogenase release; format: cell-based
[9] = test system: Bax; format: biochemical; details: 40 μM
[10] = molecular target: T1, Bax; details: not told
[11] = test system: Bax; test: Bax:membrane FRET; format: biochemical, human; details: 10 μM preincubated with 20 nM Alexa568-Bax, 20 nM BIM, DiD liposomes

T1 sequence (Q07812 whole entry): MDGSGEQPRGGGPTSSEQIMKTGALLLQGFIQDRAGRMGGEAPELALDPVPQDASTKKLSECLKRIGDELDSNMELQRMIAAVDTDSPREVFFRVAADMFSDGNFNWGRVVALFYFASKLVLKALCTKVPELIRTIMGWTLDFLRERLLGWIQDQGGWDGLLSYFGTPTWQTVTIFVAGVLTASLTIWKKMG

Bax binding to membranes by FRET [11]	SMILES	survival and growth after STS treatment and replating ([1]; 5 μM compound, BMK cells, staurosporine)	survival and growth after ActD treatment and replating ([1]; 5 or 10 μM pretreatment, WT, Bax-/- and Bak-/- BMK cells, 75 nM ActD)	survival and growth after ActD treatment and replating [2]	concentration-dependent inhibition of liposome permeabilization by tBid and Bax ([3]; individual assays, normalized to reactions without compound)	IC50 [3]	Bax-6A7 positivity (exposure of N-terminal Bax epitope) after ActD [4]	cytochrome c release from mitochondria in cells after ActD [4]	Bax binding to mitochondria [5]	FRET between DAC-Bax-134C and NBD-Bax-126C (Bax oligomerization) [6]	large oligomers of Bax (DSS crosslinking) [7]	Bax dimerization (DSS crosslinking) ([7]; highest concentration tested)	neuronal damage after glutamate excitotoxicity (LDH release) ([8]; 5 μM added directly after 30 min of 25 or 100 μM glutamate, read after 24 hr)	neuronal damage by compound alone ([8]; 5 μM, 24 hr, no glutamate)	disulfide crosslinks of double-cysteine Bax L59C/L76C and L59C/M79C [9]	disulfide crosslinking of Bax-L63C with Bax-A112C ([9]; IVT and TNT systems)	protection against ActD treatment ([1]; sub-toxic doses)	inhibition of heat-activated Bax-mediated liposome permeabilization [10]
–	COCCOCOc1ccc2c(c1)O[C@H](CN)[C@H]2N(Cc1ccc(Br)cc1)C(=O)[C@H](Cc1ccccc1)NC(=O)c1ccccc1 [MSN-125]	conferred long-term survival and growth	conferred survival	conferred survival	inhibited dye release from liposomes in a concentration-dependent fashion	~4000 nM	prevented	prevented	did not inhibit Bax binding to mitochondria	reduced FRET	inhibited large oligomers of Bax to a similar extent as the positive control Bcl-XL	inhibited Bax dimerization to a limited extent	substantially reduced neuronal damage	did not result in neuronal damage	not inhibited by MSN-125	not inhibited by MSN-125	–	–
did not inhibit Bax binding to membranes	NCCCN(Cc1ccc(Br)cc1)C(=O)[C@H](Cc1ccccc1)NC(=O)c1ccccc1 [DAN004]	–	–	–	–	~700 nM	–	–	–	–	inhibited large oligomers of Bax to a similar extent as the positive control Bcl-XL	–	–	–	–	–	did not confer protection against ActD treatment	inhibited heat-activated Bax-mediated liposome permeabilization equivalently
